The results in this text go back to US11053234B2 (GlaxoSmithKline Intellectual Property Development Limited, priority 2016, dated 2021).

The target in this test is T1, haematopoietic prostaglandin D synthase (H-PGDS) (Homo sapiens, UniProt O60760).
T1 construct: Full length human H-PGDS cDNA (Invitrogen Ultimate ORF 10H13026) was amplified by PCR; 6-His (N); TEV protease cleavage site (N); made in house; host or cells: E. coli BL21 (DE3*), vector pET22b+
In words: H-PGDS RapidFire high throughput mass spectrometry assay (conversion of PGH2 to PGD2). To be noted: 10 nM H-PGDS, PGH2 formed in situ by COX-2 from arachidonic acid; read-out: Potency Range (mean pIC50) (converted). The class given is biochemical. An outline of the steps: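 RapidFire SPE–MS read-out calculated percent conversion from relative PGD2 and PGF2α (substrate surrogate) levels. Recombinant full-length human H-PGDS (His-tag, E. coli) turned over PGH2, produced in situ at ˜10 μM by human COX-2 (FLAG-tag, Sf9 cells) acting on arachidonic acid.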

Where a name gives a salt, the structure may show the parent alone. Bounds are passed on as bounds.

T1 sequence (O60760 whole entry): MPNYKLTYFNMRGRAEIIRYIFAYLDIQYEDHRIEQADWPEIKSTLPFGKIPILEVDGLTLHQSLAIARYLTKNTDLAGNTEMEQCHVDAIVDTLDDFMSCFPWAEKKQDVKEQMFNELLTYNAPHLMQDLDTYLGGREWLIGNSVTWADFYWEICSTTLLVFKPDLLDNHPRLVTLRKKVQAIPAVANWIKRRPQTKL

For `Cc1nnc(NC(=O)N2CC(Oc3cccc4scnc34)C2)s1` [Example 321, 3-(Benzo[d]thiazol-4-yloxy)-N-(5-methyl-1,3,4-thiadiazol-2-yl)azetidine-1-carboxamide], the IC50 was 10 to 79.4 nM.

In the case of `Cc1cc(NC(=O)[C@H]2C[C@H](Oc3cccc4scnc34)C2)ncn1` [Example 307, (trans)-3-(Benzo[d]thiazol-4-yloxy)-N-(6-methylpyrimidin-4-yl)cyclobutanecarboxamide], the IC50 was 10 to 79.4 nM.

For the molecule `O=C(Nc1nc(C2CC2)ns1)N1CC(Oc2cccc3scnc23)C1` [Example 338, 3-(Benzo[d]thiazol-4-yloxy)-N-(3-cyclopropyl-1,2,4-thiadiazol-5-yl)azetidine-1-carboxamide], the IC50 was less than 10 nM.

As for `CC(C)(O)[C@H]1CC[C@H](NC(=O)N2CC(Oc3cc(F)ccc3OC(F)F)C2)CC1` [Example 1, 3-(2-(Difluoromethoxy)-5-fluorophenoxy)-N-((trans)-4-(2-hydroxypropan-2-yl)cyclohexyl)azetidine-1-carboxamide], the IC50 was 100 to 1000 nM.

`Cc1cnnc(N2CC(NC(=O)[C@H]3C[C@H](Oc4cccc5scnc45)C3)C2)c1` [Example 241, (trans)-3-(Benzo[d]thiazol-4-yloxy)-N-(1-(5-methylpyridazin-3-yl)azetidin-3-yl)cyclobutanecarboxamide, trifluoroacetic acid salt]: the IC50 was 10 to 79.4 nM.

For `N#Cc1ccnc(N2CC(NC(=O)N3CC(Oc4cccc5scnc45)C3)C2)c1` [Example 52, 3-(Benzo[d]thiazol-4-yloxy)-N-(1-(4-cyanopyridin-2-yl)azetidin-3-yl)azetidine-1-carboxamide], the IC50 is 10 to 79.4 nM.

In the case of `O=C(NC1CN(c2ccccn2)C1)[C@H]1C[C@H](Oc2cc(F)ccc2OC(F)F)C1` [Example 18, (trans)-3-(2-(Difluoromethoxy)-5-fluorophenoxy)-N-(1-(pyridin-2-yl)azetidin-3-yl)cyclobutanecarboxamide], the IC50 was 10 to 79.4 nM.

With `CC1(NC(=O)N2CC(Oc3cccc4scnc34)C2)CN(c2ncccn2)C1` [Example 251], the IC50 is 100 to 1000 nM.

For `CC(C)(O)[C@H]1CC[C@H](NC(=O)[C@H]2C[C@H](Oc3cccc4ccoc34)C2)CC1` [Example 267, (trans)-3-(Benzofuran-7-yloxy)-N-((trans)-4-(2-hydroxypropan-2-yl)cyclohexyl)cyclobutanecarboxamide], the IC50 was 10 to 79.4 nM.

`O=C(NC12CC(Nc3ncccn3)(C1)C2)[C@H]1C[C@H](Oc2cccc3scnc23)C1` [Example 315, (trans)-3-(Benzo[d]thiazol-4-yloxy)-N-(3-(pyrimidin-2-ylamino)bicyclo[1.1.1]pentan-1-yl)cyclobutane-1-carboxamide]: the IC50 is 10 to 79.4 nM.

Consider `CCc1cccc(O[C@H]2C[C@H](C(=O)N[C@H]3CC[C@H](C(C)(C)O)CC3)C2)c1` [Example 285, (trans)-3-(3-Ethylphenoxy)-N-((trans)-4-(2-hydroxypropan-2-yl)cyclohexyl)cyclobutanecarboxamide], for which the IC50 is 100 to 1000 nM.

Take `O=C(NC1CN(c2ncc(F)cn2)C1)N1CC(Oc2cc(F)cc3scnc23)C1` [Example 135, 3-((6-Fluorobenzo[d]thiazol-4-yl)oxy)-N-(1-(5-fluoropyrimidin-2-yl)azetidin-3-yl)azetidine-1-carboxamide]: the IC50 is 10 to 79.4 nM.

In the case of `O=C(Nc1nnc(C2CC2)s1)N1CC(Oc2cccc3scnc23)C1` [Example 333, 3-(Benzo[d]thiazol-4-yloxy)-N-(5-cyclopropyl-1,3,4-thiadiazol-2-yl)azetidine-1-carboxamide], the IC50 was less than 10 nM.

In the case of `CC(C)(O)[C@H]1CC[C@H](NC(=O)N2CC(Oc3cc(C(N)=O)cc4scnc34)C2)CC1` [Example 330, 4-((1-(((trans)-4-(2-Hydroxypropan-2-yl)cyclohexyl)carbamoyl)azetidin-3-yl)oxy)benzo[d]thiazole-6-carboxamide], the IC50 was 10 to 79.4 nM.

Take `CC(=O)c1csc(NC(=O)[C@H]2C[C@H](Oc3cccc4c(Br)coc34)C2)n1` [Example 271, (trans)-N-(4-Acetylthiazol-2-yl)-3-((3-bromobenzofuran-7-yl)oxy)cyclobutanecarboxamide]: the IC50 was 10 to 79.4 nM.

`CC(=O)c1cnc(NC(=O)[C@H]2C[C@H](Oc3cccc4cccnc34)C2)s1` [Example 202, (trans)-N-(5-Acetylthiazol-2-yl)-3-(quinolin-8-yloxy)cyclobutanecarboxamide]: the IC50 was 10 to 79.4 nM.

Consider `O=C(NC1CCN(c2ccccn2)C1)[C@H]1C[C@H](Oc2cccc3scnc23)C1` (mixture of isomers) [Example 82, Racemic (trans)-3-(Benzo[d]thiazol-4-yloxy)-N-(1-(pyridin-2-yl)pyrrolidin-3-yl)cyclobutanecarboxamide], for which the IC50 was 10 to 79.4 nM.

For `CC(C)(C)c1nsc(NC(=O)N2CC(Oc3cccc4scnc34)C2)n1` [Example 339], the IC50 is 10 to 79.4 nM.

In the case of `CC(=O)c1csc(NC(=O)[C@H]2C[C@H](Oc3cccc4scnc34)C2)n1` [Example 68, (trans)-N-(4-Acetylthiazol-2-yl)-3-(benzo[d]thiazol-4-yloxy)cyclobutanecarboxamide], the IC50 is 10 to 79.4 nM.

With `CC(=O)c1csc(NC(=O)[C@H]2C[C@H](Oc3cc(Cl)ccc3OC(F)F)C2)n1` [Example 272, (trans)-N-(4-Acetylthiazol-2-yl)-3-(5-chloro-2-(difluoromethoxy)phenoxy)cyclobutanecarboxamide], the IC50 is 10 to 79.4 nM.

Take `CC(C)(O)[C@H]1CC[C@H](NC(=O)[C@H]2C[C@H](Oc3ccccc3OC(F)(F)F)C2)CC1` [Example 259, (trans)-N-((trans)-4-(2-Hydroxypropan-2-yl)cyclohexyl)-3-(2-(trifluoromethoxy)phenoxy)cyclobutanecarboxamide]: the IC50 is 100 to 1000 nM.

For `O=C(NC1CCS(=O)(=O)C1)[C@H]1C[C@H](Oc2cccc3scnc23)C1` (mixture of isomers) [Example 254, Racemic (trans)-3-(Benzo[d]thiazol-4-yloxy)-N-(1,1-dioxidotetrahydrothiophen-3-yl)cyclobutanecarboxamide], the IC50 is 100 to 1000 nM.

For the molecule `CC(C)(O)CO[C@H]1CC[C@H](NC(=O)N2CC(Oc3cccc4scnc34)C2)CC1` [Example 106, 3-(Benzo[d]thiazol-4-yloxy)-N-((trans)-4-(2-hydroxy-2-methylpropoxy)cyclohexyl)azetidine-1-carboxamide], the IC50 was 10 to 79.4 nM.

For the molecule `O=C(NC1CCN(c2ncc(F)cn2)CC1)[C@H]1C[C@H](Oc2cccc3scnc23)C1` [Example 41, (trans)-3-(Benzo[d]thiazol-4-yloxy)-N-(1-(5-fluoropyrimidin-2-yl)piperidin-4-yl)cyclobutanecarboxamide], the IC50 was 10 to 79.4 nM.

For the molecule `CS(=O)(=O)c1ccc(NC(=O)N2CC(Oc3cccc4scnc34)C2)cc1` [Example 306, 3-(Benzo[d]thiazol-4-yloxy)-N-(4-(methylsulfonyl)phenyl)azetidine-1-carboxamide], the IC50 is 10 to 79.4 nM.

For `CC(C)(O)C12C3C4C1C1C2C3C41NC(=O)N1CC(Oc2cccc3scnc23)C1` (centres unmarked) [Example 317, 3-(Benzo[d]thiazol-4-yloxy)-N-(4-(2-hydroxypropan-2-yl)cuban-1-yl)azetidine-1-carboxamide], the IC50 is 10 to 79.4 nM.

Consider `O=C(N[C@H]1CC[C@H](Nc2ncccn2)CC1)[C@H]1C[C@H](Oc2cc(F)ccc2OC(F)F)C1` [Example 10, (trans)-3-(2-(Difluoromethoxy)-5-fluorophenoxy)-N-((trans)-4-(pyrimidin-2-ylamino)cyclohexyl)cyclobutanecarboxamide], for which the IC50 was 10 to 79.4 nM.

In the case of `Cn1ccc(NC(=O)N2CC(Oc3cccc4scnc34)C2)n1` [Example 322, 3-(Benzo[d]thiazol-4-yloxy)-N-(1-methyl-1H-pyrazol-3-yl)azetidine-1-carboxamide], the IC50 was 100 to 1000 nM.

`COc1ccc(F)cc1O[C@H]1C[C@H](C(=O)Nc2ncc(C(C)(C)O)s2)C1` [Example 165, (trans)-3-(5-Fluoro-2-methoxyphenoxy)-N-(5-(2-hydroxypropan-2-yl)thiazol-2-yl)cyclobutanecarboxamide]: the IC50 was 10 to 79.4 nM.

As for `CC(N[C@H]1CC[C@H](NC(=O)[C@H]2C[C@H](Oc3cccc4cccnc34)C2)CC1)C(F)F` (mixture of isomers) [Example 180, Racemic (trans)-N-((trans)-4-((1,1-Difluoropropan-2-yl)amino)cyclohexyl)-3-(quinolin-8-yloxy)cyclobutanecarboxamide], the IC50 is 100 to 1000 nM.

Turning to `CC(C)(O)[C@H]1CC[C@H](NC(=O)[C@H]2C[C@H](Oc3ccccc3OC(F)F)C2)CC1` [Example 278, (trans)-3-(2-(Difluoromethoxy)phenoxy)-N-((trans)-4-(2-hydroxypropan-2-yl)cyclohexyl)cyclobutanecarboxamide], the IC50 is 10 to 79.4 nM.

`COc1ccc(F)cc1O[C@H]1C[C@H](C(=O)Nc2nc(C3CC3)cs2)C1` [Example 167, (trans)-N-(4-Cyclopropylthiazol-2-yl)-3-(5-fluoro-2-methoxyphenoxy)cyclobutanecarboxamide]: the IC50 was less than 10 nM.

Take `Cn1cc(NC(=O)N2CC(Oc3cccc4scnc34)C2)cn1` [Example 324, 3-(Benzo[d]thiazol-4-yloxy)-N-(1-methyl-1H-pyrazol-4-yl)azetidine-1-carboxamide]: the IC50 was 100 to 1000 nM.

On to `O=C(NC1CCc2ccccc21)[C@H]1C[C@H](Oc2cccc(Cl)c2)C1` (mixture of isomers) [Example 286, Racemic (trans)-3-(3-Chlorophenoxy)-N-(2,3-dihydro-1H-inden-1-yl)cyclobutanecarboxamide], for which the IC50 was 10 to 79.4 nM.

`CC(C)(O)[C@H]1CC[C@H](NC(=O)[C@H]2C[C@H](Oc3cccc4cccnc34)C2)CC1` [Example 225, N-((trans)-4-(2-Hydroxypropan-2-yl)cyclohexyl)-3-(quinolin-8-yloxy)cyclobutanecarboxamide]: the IC50 was 10 to 79.4 nM.
